The record followed here is publication PMC3726599, “A Metabolically-Stabilized Phosphonate Analog of Lysophosphatidic Acid Attenuates Collagen-Induced Arthritis” (PLoS ONE, 2013).

This experiment deals with T1, recombinant ATX (Homo sapiens, UniProt Q13822).
T1 construct: purchased SinoBiological Inc (main data); R&D (additional Km values)
The experiment is described as follows: FS-3 ATX activity assay. Type of experiment: biochemical. The procedure: Inhibition of ATX activity by BrP-LPA was determined using the cleavage of the ATX-specific fluorogenic substrate FS-3 (Echelon Biosciences, UT, USA). Assays were conducted in a final volume of 100 μl in the presence of 140 mM NaCl, 5 mM KCl, 1 mM MgCl2 and 50 mM Tris, pH 8.0 with the use of 1 µM FS-3, 2 nM ATX from Echelon and increasing concentrations of BrP-LPA. Reactions were brought up to 100 µl with ddH2O and were then incubated at 37°C in a Tecan Infinite 200 microplate reader (Tecan Trading AG, Switzerland) set to make fluorescence measurements every 1 min for a total period of 30 min. Autotaxin activity was quantified by measuring the rate of increase in fluorescence at 528 nm with excitation at 485 nm. At the end of the measurement, each data point was plotted on a graph of fluorescence versus time. A linear regression was fitted in the linear portion of the graph (3–20 min).
The biochemistry of lyso-PLD was assessed by following the kinetics data using a wide panel of different ATX substrates [FS-3, different LPC species (14:0, 16:0, 18:0, 18:1)], three different recombinant ATX proteins (R&D, Sino-Biological and Echelon) and three different ATX activity assays (FS-3, TOOS, Amplex Red). The ATX activity was measured at different substrate concentrations (typically from 1-1000 μM) in order to examine whether ATX follows Michaelis-Menten kinetics. […] Km and Vmax were evaluated from the rectangular hyperbola curve with the use of GraphPad software.
For in vitro inhibition measurements, BrP-LPA was dissolved in water as a stock solution (4 mM) and appropriate dilutions were made in water. […] The in vitro inhibition of ATX by BrP-LPA was evaluated with three different assays (FS-3, Amplex Red, and TOOS). […]
The inhibition model (competitive, noncompetitive, or mixed type inhibition) was evaluated by graphical analysis with Lineweaver–Burk double reciprocal plots (1/[velocity] versus 1/[substrate]) and Cornish-Bowden plot ([substrate]/[velocity] versus [Inhibitor]). […]

A word on the % Inhibition: it is the drop in the measured response relative to a control, in per cent. The IC50 is the concentration that gives 50% inhibition. The Ki is the equilibrium dissociation constant of an inhibitor or competing ligand from its target. As for `CCCCCCCCCCCCCCCC(=O)OC[C@@H](O)CC(Br)P(=O)(O)O` (stereo partly drawn) [BrP-LPA, 1-bromo-3(S)-hydroxy-4-(palmitoyloxy)butyl-phosphonate], the “% Inhibition at 10 μΜ” value (FS-3 1 μΜ, BrP-LPA 10 μΜ) was determined as 95%. Under “FS-3 assay, [S] 1 μΜ FS-3, Echelon ATX 2 nM, mean±std”, the IC50 was 400 ± 30 nM. The Ki (FS-3 substrate, Cheng-Prusoff from IC50) was 300 ± 100 nM.
